Source: patent publication EP2689855B1, “Modified micronization device and use thereof” (Oekomineral AG, priority 2012, dated 2014)
Converted amounts (≈) assume the structure as drawn. One block for each compound: values may come before it.

Legend:
Format in all cases: physicochemical
[1] = Water solubility measurement of micronized Pterostilbene; settings: thermodynamic from solid
Protocol: 1.00 kg of Pterostilbene (98% purity, Organic Herb, China) 50 µm of crystalline particles as model substance were subjected to micronization from present invention with additional maintaining of low temperature (20 °C) of substance via slow liquid nitrogen stream flow addition through neck feeder. In this preparation discs with blades in the shape of cubes and extruded triangles were used (Figure 7) , according to the present invention.
Such prepared samples of micronized Pterostilbene were subjected to particles size analyses and water solubility measurement.

[2] = Particle size analysis (Malvern MasterSizer 2000) of micronized samples; settings: ursolic acid
Source text: The influence of the shape of the blades on the efficiency of the micronization has been studied by the use of the micronization device shown in Figures 1 and 2 from the prior art of the following technical characteristics: • (i) diameter of discs (Ø) of micronizer was 370 mm; • (ii) number of layers of hitting elements (blades) on the discs was 3 on primary and 2 on secondary disc; • (iii) number of blades on each of wreaths of discs was 20/16 (outer/inner wreath) from one side; and 18/16 (outer/inner wreath) from the other side of the micronizer; • (iv) the rotation velocity was 10000 rpm;
1 kg of each sample of same zeolite clinoptilolite was micronized by using the device according to the prior art and three different hitting elements as depicted in figures 5, 6 and 8. The disintegrators are characterized by the following data: • 1. Plates formed according to US4406409 A (Figure 5; Micronization-1); • 2. Slightly curved and indented plates according to HR990263 A2 (Figure 6; Micronizationt-2); and • 3. The hitting elements according to the present invention (Figure 8; Micronization-3) […]
(§1) 1 kg of each sample of ursolic acid (98% purity, Sigma Aldrich) of an average particle size of 30 µm was micronized five times in devices having different hitting elements. The discs were cooled through a feeder opening with liquid nitrogen spraying to avoid overheating of the heat-sensitive substance.
The micronized samples were analyzed for particle size (Malvern MasterSizer 2000), while the extent of crystalline disorder of particles was quantified with isothermal calorimetry (IC TAM 3, TA instruments, USA). Data was recorded with proprietary software Digitam 4.2. […]

[3] = Amorphous content / crystalline disorder by isothermal calorimetry (IC TAM 3); settings: ursolic acid
Protocol: as §1
The micronized samples were analyzed for particle size (Malvern MasterSizer 2000), while the extent of crystalline disorder of particles was quantified with isothermal calorimetry (IC TAM 3, TA instruments, USA). Data was recorded with proprietary software Digitam 4.2.

solubility ([1]; after seven repeated processes of micronization, blades of present invention (Figure 7)): 128 µg/mL (≈ 499 µM) | solubility ([1]; before micronization): 23 µg/mL (≈ 89.7 µM)
Compound: COc1cc(/C=C/c2ccc(O)cc2)cc(OC)c1 [Pterostilbene]

Volume (%) under ([2]; Particles size 0.105 µm, MICRONIZATION-1, five repeated micronization procedures): 0.00% | Volume (%) under ([2]; Particles size 0.105 µm, MICRONIZATION-2, five repeated micronization procedures): 0.00% | Volume (%) under ([2]; Particles size 0.105 µm, MICRONIZATION-3, five repeated micronization procedures): 0.00% | Volume (%) under ([2]; Particles size 0.120 µm, MICRONIZATION-1, five repeated micronization procedures): 0.00% | Volume (%) under ([2]; Particles size 0.120 µm, MICRONIZATION-2, five repeated micronization procedures): 0.00% | Volume (%) under ([2]; Particles size 0.120 µm, MICRONIZATION-3, five repeated micronization procedures): 0.00% | Volume (%) under ([2]; Particles size 0.138 µm, MICRONIZATION-1, five repeated micronization procedures): 0.00% | Volume (%) under ([2]; Particles size 0.138 µm, MICRONIZATION-2, five repeated micronization procedures): 0.00% | Volume (%) under ([2]; Particles size 0.138 µm, MICRONIZATION-3, five repeated micronization procedures): 0.00% | Volume (%) under ([2]; Particles size 0.158 µm, MICRONIZATION-1, five repeated micronization procedures): 0.00% | Volume (%) under ([2]; Particles size 0.158 µm, MICRONIZATION-2, five repeated micronization procedures): 0.00% | Volume (%) under ([2]; Particles size 0.158 µm, MICRONIZATION-3, five repeated micronization procedures): 0.28% | Volume (%) under ([2]; Particles size 0.182 µm, MICRONIZATION-1, five repeated micronization procedures): 0.00% | Volume (%) under ([2]; Particles size 0.182 µm, MICRONIZATION-2, five repeated micronization procedures): 0.00% | Volume (%) under ([2]; Particles size 0.182 µm, MICRONIZATION-3, five repeated micronization procedures): 1.38% | Volume (%) under ([2]; Particles size 0.209 µm, MICRONIZATION-1, five repeated micronization procedures): 0.00% | Volume (%) under ([2]; Particles size 0.209 µm, MICRONIZATION-2, five repeated micronization procedures): 0.12% | Volume (%) under ([2]; Particles size 0.209 µm, MICRONIZATION-3, five repeated micronization procedures): 2.73% | Volume (%) under ([2]; Particles size 0.240 µm, MICRONIZATION-1, five repeated micronization procedures): 0.00% | Volume (%) under ([2]; Particles size 0.240 µm, MICRONIZATION-2, five repeated micronization procedures): 0.46% | Volume (%) under ([2]; Particles size 0.240 µm, MICRONIZATION-3, five repeated micronization procedures): 3.69% | Volume (%) under ([2]; Particles size 0.275 µm, MICRONIZATION-1, five repeated micronization procedures): 0.01% | Volume (%) under ([2]; Particles size 0.275 µm, MICRONIZATION-2, five repeated micronization procedures): 1.19% | Volume (%) under ([2]; Particles size 0.275 µm, MICRONIZATION-3, five repeated micronization procedures): 5.39% | Volume (%) under ([2]; Particles size 0.316 µm, MICRONIZATION-1, five repeated micronization procedures): 0.06% | Volume (%) under ([2]; Particles size 0.316 µm, MICRONIZATION-2, five repeated micronization procedures): 1.97% | Volume (%) under ([2]; Particles size 0.316 µm, MICRONIZATION-3, five repeated micronization procedures): 8.42% | Volume (%) under ([2]; Particles size 0.363 µm, MICRONIZATION-1, five repeated micronization procedures): 0.23% | Volume (%) under ([2]; Particles size 0.363 µm, MICRONIZATION-2, five repeated micronization procedures): 2.83% | Volume (%) under ([2]; Particles size 0.363 µm, MICRONIZATION-3, five repeated micronization procedures): 11.76% | Volume (%) under ([2]; Particles size 0.417 µm, MICRONIZATION-1, five repeated micronization procedures): 0.50% | Volume (%) under ([2]; Particles size 0.417 µm, MICRONIZATION-2, five repeated micronization procedures): 4.09% | Volume (%) under ([2]; Particles size 0.417 µm, MICRONIZATION-3, five repeated micronization procedures): 14.01% | Volume (%) under ([2]; Particles size 0.479 µm, MICRONIZATION-1, five repeated micronization procedures): 0.87% | Volume (%) under ([2]; Particles size 0.479 µm, MICRONIZATION-2, five repeated micronization procedures): 5.36% | Volume (%) under ([2]; Particles size 0.479 µm, MICRONIZATION-3, five repeated micronization procedures): 19.32% | Volume (%) under ([2]; Particles size 0.550 µm, MICRONIZATION-1, five repeated micronization procedures): 1.12% | Volume (%) under ([2]; Particles size 0.550 µm, MICRONIZATION-2, five repeated micronization procedures): 7.01% | Volume (%) under ([2]; Particles size 0.550 µm, MICRONIZATION-3, five repeated micronization procedures): 25.19% | Volume (%) under ([2]; Particles size 0.631 µm, MICRONIZATION-1, five repeated micronization procedures): 2.02% | Volume (%) under ([2]; Particles size 0.631 µm, MICRONIZATION-2, five repeated micronization procedures): 9.13% | Volume (%) under ([2]; Particles size 0.631 µm, MICRONIZATION-3, five repeated micronization procedures): 31.12% | Volume (%) under ([2]; Particles size 0.724 µm, MICRONIZATION-1, five repeated micronization procedures): 3.29% | Volume (%) under ([2]; Particles size 0.724 µm, MICRONIZATION-2, five repeated micronization procedures): 11.51% | Volume (%) under ([2]; Particles size 0.724 µm, MICRONIZATION-3, five repeated micronization procedures): 36.14% | Volume (%) under ([2]; Particles size 0.832 µm, MICRONIZATION-1, five repeated micronization procedures): 4.78% | Volume (%) under ([2]; Particles size 0.832 µm, MICRONIZATION-2, five repeated micronization procedures): 13.61% | Volume (%) under ([2]; Particles size 0.832 µm, MICRONIZATION-3, five repeated micronization procedures): 42.72% | Volume (%) under ([2]; Particles size 0.955 µm, MICRONIZATION-1, five repeated micronization procedures): 6.12% | Volume (%) under ([2]; Particles size 0.955 µm, MICRONIZATION-2, five repeated micronization procedures): 16.29% | Volume (%) under ([2]; Particles size 0.955 µm, MICRONIZATION-3, five repeated micronization procedures): 50.02% | Volume (%) under ([2]; Particles size 1.096 µm, MICRONIZATION-1, five repeated micronization procedures): 8.44% | Volume (%) under ([2]; Particles size 1.096 µm, MICRONIZATION-2, five repeated micronization procedures): 19.17% | Volume (%) under ([2]; Particles size 1.096 µm, MICRONIZATION-3, five repeated micronization procedures): 59.80% | Amorphous Content (%, w/w) ([3]; MICRONIZATION-1, five repeated micronization procedures): 3.68 %, w/w | Amorphous Content (%, w/w) ([3]; MICRONIZATION-2, five repeated micronization procedures): 6.12 %, w/w | Amorphous Content (%, w/w) ([3]; MICRONIZATION-3, five repeated micronization procedures): 19.23 %, w/w
Compound: C[C@H]1[C@H](C)CC[C@]2(C(=O)O)CC[C@]3(C)C(=CC[C@@H]4[C@@]5(C)CC[C@H](O)C(C)(C)[C@@H]5CC[C@]43C)[C@H]12 [ursolic acid]
